Key:
[1] = target: T1, Amine oxidase [flavin-containing] A (Homo sapiens, UniProt P21397); assay: DRUGMATRIX: Monoamine Oxidase MAO-A enzyme inhibition (substrate: Kynuramine); set-up: species or system BTI-TN-5B1-4; conditions: Not Active = under 50% inhibition at 10 µM
T1 sequence (P21397 whole entry): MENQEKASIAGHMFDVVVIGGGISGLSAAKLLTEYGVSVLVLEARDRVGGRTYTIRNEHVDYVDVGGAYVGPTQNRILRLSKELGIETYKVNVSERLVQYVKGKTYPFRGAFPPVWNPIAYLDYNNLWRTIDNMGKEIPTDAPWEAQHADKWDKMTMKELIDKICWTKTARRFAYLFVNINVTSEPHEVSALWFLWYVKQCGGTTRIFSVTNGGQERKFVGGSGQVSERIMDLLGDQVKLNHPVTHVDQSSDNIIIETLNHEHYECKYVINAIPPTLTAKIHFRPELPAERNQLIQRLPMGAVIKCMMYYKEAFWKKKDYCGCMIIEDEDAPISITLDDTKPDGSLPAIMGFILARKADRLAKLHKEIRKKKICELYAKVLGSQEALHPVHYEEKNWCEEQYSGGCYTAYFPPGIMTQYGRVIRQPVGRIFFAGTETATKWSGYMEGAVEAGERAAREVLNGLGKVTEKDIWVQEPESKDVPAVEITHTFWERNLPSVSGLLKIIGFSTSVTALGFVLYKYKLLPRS

D(4) dopamine receptor = target: T2, D(4) dopamine receptor (Homo sapiens, UniProt P21917); assay: DRUGMATRIX: Dopamine D4.2 radioligand binding (ligand: [3H] Spiperone); assay type: cell membranes, CHO-K1, Membrane; conditions: cho-k1; Not Active = under 50% inhibition at 10 µM
T2 sequence (P21917 whole entry): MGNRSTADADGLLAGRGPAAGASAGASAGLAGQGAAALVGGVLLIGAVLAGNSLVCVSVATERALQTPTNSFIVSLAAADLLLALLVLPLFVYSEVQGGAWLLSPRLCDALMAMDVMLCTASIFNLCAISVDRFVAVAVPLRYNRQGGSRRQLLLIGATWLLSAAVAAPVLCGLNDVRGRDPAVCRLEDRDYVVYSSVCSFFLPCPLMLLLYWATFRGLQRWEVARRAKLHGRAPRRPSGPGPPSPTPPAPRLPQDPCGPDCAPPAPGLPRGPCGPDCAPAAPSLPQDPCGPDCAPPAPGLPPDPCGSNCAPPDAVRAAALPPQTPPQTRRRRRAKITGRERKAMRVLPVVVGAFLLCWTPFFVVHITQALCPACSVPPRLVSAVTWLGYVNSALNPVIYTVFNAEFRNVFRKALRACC

[2] = DRUGMATRIX: GABAA, Flunitrazepam, Central radioligand binding (ligand: [3H] Flunitrazepam); assay type: cell membranes, Rattus norvegicus, Wistar, Brain, Membrane; conditions: Not Active = under 50% inhibition at 10 µM
[3] = target: T3, Receptor-type tyrosine-protein phosphatase C (Homo sapiens, UniProt P08575); set-up: species or system Escherichia coli;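 also: inhibition of CD45 enzyme activity measured using DiFMUP as substrate; in other assays of this panel Not Active means under 50% inhibition at 10 µM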
T3 sequence (P08575 whole entry): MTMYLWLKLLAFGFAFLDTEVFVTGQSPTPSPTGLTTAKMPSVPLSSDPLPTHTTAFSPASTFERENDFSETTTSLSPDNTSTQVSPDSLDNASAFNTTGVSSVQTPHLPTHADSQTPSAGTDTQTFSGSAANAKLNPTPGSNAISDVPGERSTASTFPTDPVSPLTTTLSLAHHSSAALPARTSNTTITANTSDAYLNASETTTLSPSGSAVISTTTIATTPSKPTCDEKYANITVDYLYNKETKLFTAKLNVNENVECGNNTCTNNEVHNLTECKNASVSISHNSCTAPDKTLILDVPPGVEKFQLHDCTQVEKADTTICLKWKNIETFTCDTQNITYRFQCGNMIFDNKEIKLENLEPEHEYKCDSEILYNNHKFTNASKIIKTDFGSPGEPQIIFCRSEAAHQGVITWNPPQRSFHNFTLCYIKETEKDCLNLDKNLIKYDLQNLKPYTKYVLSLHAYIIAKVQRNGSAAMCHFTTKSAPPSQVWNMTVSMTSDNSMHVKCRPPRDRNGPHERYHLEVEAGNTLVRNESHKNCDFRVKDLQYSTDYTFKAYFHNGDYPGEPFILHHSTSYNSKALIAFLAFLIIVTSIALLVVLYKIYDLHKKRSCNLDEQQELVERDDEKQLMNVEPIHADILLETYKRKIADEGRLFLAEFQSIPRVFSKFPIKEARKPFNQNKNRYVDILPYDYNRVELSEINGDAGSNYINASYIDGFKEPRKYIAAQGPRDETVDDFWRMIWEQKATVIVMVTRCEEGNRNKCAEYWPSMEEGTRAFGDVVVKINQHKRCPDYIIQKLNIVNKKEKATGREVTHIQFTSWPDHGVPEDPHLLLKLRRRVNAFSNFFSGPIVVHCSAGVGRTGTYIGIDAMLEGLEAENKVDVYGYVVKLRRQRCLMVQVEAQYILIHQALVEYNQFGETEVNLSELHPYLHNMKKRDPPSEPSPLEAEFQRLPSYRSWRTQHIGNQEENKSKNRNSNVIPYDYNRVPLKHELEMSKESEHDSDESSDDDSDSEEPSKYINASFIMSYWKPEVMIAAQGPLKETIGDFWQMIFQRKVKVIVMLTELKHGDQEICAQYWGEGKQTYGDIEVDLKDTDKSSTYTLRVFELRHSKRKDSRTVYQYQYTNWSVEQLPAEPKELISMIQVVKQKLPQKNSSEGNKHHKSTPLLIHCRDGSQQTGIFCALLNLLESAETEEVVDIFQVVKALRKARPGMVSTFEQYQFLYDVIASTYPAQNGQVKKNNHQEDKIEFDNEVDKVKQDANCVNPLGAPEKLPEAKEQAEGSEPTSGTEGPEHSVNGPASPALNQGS

Insulin receptor = Insulin receptor (Rattus norvegicus, UniProt P15127); assay type: cell membranes, Wistar, Liver, Membrane; also: in other assays of this panel Not Active means under 50% inhibition at 10 µM
Sequence of Insulin receptor (P15127 27-759 limits assumed): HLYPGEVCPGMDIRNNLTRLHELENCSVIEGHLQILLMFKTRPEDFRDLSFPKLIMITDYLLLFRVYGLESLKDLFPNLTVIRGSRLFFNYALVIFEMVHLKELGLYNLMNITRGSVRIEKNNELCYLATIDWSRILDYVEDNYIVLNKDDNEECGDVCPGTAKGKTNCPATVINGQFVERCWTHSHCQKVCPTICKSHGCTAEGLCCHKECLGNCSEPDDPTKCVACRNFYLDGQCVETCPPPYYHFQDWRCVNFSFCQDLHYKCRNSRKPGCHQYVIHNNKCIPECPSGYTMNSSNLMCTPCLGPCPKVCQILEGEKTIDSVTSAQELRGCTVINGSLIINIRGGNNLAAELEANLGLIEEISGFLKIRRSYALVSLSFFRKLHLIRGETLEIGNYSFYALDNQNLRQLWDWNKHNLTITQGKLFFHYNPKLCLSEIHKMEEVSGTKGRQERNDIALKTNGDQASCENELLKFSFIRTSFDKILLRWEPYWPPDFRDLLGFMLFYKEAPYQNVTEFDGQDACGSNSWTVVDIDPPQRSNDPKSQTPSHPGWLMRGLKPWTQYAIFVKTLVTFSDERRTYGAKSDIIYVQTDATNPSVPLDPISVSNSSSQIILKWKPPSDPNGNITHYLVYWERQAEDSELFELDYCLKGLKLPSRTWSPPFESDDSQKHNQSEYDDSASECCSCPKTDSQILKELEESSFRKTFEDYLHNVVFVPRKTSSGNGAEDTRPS
Sequence of Insulin receptor (P15127 764-1383 limits assumed): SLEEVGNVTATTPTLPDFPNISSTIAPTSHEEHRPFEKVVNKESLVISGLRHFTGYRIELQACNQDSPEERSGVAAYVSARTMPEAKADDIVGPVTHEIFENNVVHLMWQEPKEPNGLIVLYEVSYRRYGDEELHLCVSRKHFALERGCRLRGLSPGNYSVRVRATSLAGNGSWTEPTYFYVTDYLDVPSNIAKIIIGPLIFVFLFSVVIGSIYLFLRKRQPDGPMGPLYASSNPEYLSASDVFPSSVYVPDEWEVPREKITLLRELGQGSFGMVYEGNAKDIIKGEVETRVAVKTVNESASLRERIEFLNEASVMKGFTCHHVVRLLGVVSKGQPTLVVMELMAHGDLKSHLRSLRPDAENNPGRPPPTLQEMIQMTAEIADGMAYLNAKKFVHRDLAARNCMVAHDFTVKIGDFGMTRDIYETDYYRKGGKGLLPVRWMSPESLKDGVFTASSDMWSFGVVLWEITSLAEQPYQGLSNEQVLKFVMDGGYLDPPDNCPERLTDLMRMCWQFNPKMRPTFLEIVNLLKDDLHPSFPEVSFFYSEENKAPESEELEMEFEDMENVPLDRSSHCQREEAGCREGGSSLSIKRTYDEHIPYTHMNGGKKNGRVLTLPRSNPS

B2 bradykinin receptor = target: T4, B2 bradykinin receptor (Homo sapiens, UniProt P30411); assay type: cell membranes, Membrane; conditions: chem-1; also: in other assays of this panel Not Active means under 50% inhibition at 10 µM
T4 sequence (P30411 whole entry): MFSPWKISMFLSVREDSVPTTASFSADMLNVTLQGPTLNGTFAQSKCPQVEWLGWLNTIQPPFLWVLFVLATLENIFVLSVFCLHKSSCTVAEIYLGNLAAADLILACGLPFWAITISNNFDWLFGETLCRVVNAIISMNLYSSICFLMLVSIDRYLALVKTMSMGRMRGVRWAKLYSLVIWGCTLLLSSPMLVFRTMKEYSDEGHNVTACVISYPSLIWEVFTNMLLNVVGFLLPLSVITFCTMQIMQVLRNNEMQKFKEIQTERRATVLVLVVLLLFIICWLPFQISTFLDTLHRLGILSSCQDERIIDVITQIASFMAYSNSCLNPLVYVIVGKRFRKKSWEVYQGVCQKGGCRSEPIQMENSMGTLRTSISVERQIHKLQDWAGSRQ

SMILES: COc1ccc2cc(CC(=O)O)ccc2c1
- IC50 ([1]; bti-tn-5b1-4): Not Active
- IC50 (D(4) dopamine receptor): Not Active
- IC50 [2]: Not Active
- Ki [2]: Not Active
- IC50 [3]: Not Active
- IC50 (Insulin receptor): Not Active
- IC50 (B2 bradykinin receptor): Not Active

SMILES: CC(C)NC[C@H](O)COc1cccc2[nH]ccc12
- IC50 ([1]; bti-tn-5b1-4): Not Active
- IC50 (D(4) dopamine receptor): Not Active
- IC50 [2]: Not Active
- Ki [2]: Not Active
- IC50 [3]: Not Active
- IC50 (Insulin receptor): Not Active
- IC50 (B2 bradykinin receptor): Not Active

SMILES: c1ccc2c(c1)cc1ccc3cccc4ccc2c1c34
- IC50 ([1]; read-out: IC50): 5.97 µM
- IC50 (D(4) dopamine receptor): Not Active
- IC50 [2]: Not Active
- Ki [2]: Not Active
- IC50 [3]: Not Active
- IC50 (Insulin receptor): Not Active
- IC50 (B2 bradykinin receptor): Not Active

SMILES: CC=CC(=O)N(CC)c1ccccc1C
- IC50 ([1]; bti-tn-5b1-4): Not Active
- IC50 (D(4) dopamine receptor): Not Active
- IC50 [2]: Not Active
- Ki [2]: Not Active
- IC50 [3]: Not Active
- IC50 (Insulin receptor): Not Active
- IC50 (B2 bradykinin receptor): Not Active

SMILES: C=C1C(=O)O[C@@H]2C3O[C@]3(C)CC/C=C(\C)CC[C@@H]12 (some centres undefined)
- IC50 ([1]; bti-tn-5b1-4): Not Active
- IC50 (D(4) dopamine receptor): Not Active
- IC50 [2]: Not Active
- Ki [2]: Not Active
- IC50 [3]: Not Active
- IC50 (Insulin receptor): Not Active
- IC50 (B2 bradykinin receptor): Not Active

SMILES: CC(/C=C1\SC(=S)N(CC(=O)O)C1=O)=C\c1ccccc1
- IC50 ([1]; bti-tn-5b1-4): Not Active
- IC50 (D(4) dopamine receptor): Not Active
- IC50 [2]: Not Active
- Ki [2]: Not Active
- IC50 [3]: Not Active
- IC50 (Insulin receptor): Not Active
- IC50 (B2 bradykinin receptor): Not Active

SMILES: CCCCCCCCCc1ccc(O)cc1 [4-NONYLPHENOL]
- IC50 ([1]; bti-tn-5b1-4): Not Active
- IC50 (D(4) dopamine receptor): Not Active
- IC50 [2]: Not Active
- Ki [2]: Not Active
- IC50 [3]: Not Active
- IC50 (Insulin receptor): Not Active
- IC50 (B2 bradykinin receptor): Not Active

SMILES: COc1ccc2c(c1)c(CC(=O)OCC(=O)O)c(C)n2C(=O)c1ccc(Cl)cc1 [ACEMETACIN]
- IC50 ([1]; bti-tn-5b1-4): Not Active
- IC50 (D(4) dopamine receptor): Not Active
- IC50 [2]: Not Active
- Ki [2]: Not Active
- IC50 [3]: Not Active
- IC50 (Insulin receptor): Not Active
- IC50 (B2 bradykinin receptor): Not Active

SMILES: CCCSc1ccc2nc(NC(=O)OC)[nH]c2c1 [ALBENDAZOLE]
- IC50 ([1]; bti-tn-5b1-4): Not Active
- IC50 (D(4) dopamine receptor): Not Active
- IC50 [2]: Not Active
- Ki [2]: Not Active
- IC50 [3]: Not Active
- IC50 (Insulin receptor): Not Active
- IC50 (B2 bradykinin receptor): Not Active

SMILES: Cc1[nH]cnc1CN1CCc2c(c3ccccc3n2C)C1=O [ALOSETRON]
- IC50 ([1]; bti-tn-5b1-4): Not Active
- IC50 (D(4) dopamine receptor): Not Active
- IC50 [2]: Not Active
- Ki [2]: Not Active
- IC50 [3]: Not Active
- IC50 (Insulin receptor): Not Active
- IC50 (B2 bradykinin receptor): Not Active

SMILES: O=c1cc(-c2ccccc2)oc2c1ccc1ccccc12 [ALPHA-NAPHTHOFLAVONE]
- IC50 ([1]; bti-tn-5b1-4): Not Active
- IC50 (D(4) dopamine receptor): Not Active
- IC50 [2]: Not Active
- Ki [2]: Not Active
- IC50 [3]: Not Active
- IC50 (Insulin receptor): Not Active
- IC50 (B2 bradykinin receptor): Not Active

SMILES: NCC[C@H](O)C(=O)N[C@@H]1C[C@H](N)[C@@H](O[C@H]2O[C@H](CN)[C@@H](O)[C@H](O)[C@H]2O)[C@H](O)[C@H]1O[C@H]1O[C@H](CO)[C@@H](O)[C@H](N)[C@H]1O [AMIKACIN]
- IC50 ([1]; bti-tn-5b1-4): Not Active
- IC50 (D(4) dopamine receptor): Not Active
- IC50 [2]: Not Active
- Ki [2]: Not Active
- IC50 [3]: Not Active
- IC50 (Insulin receptor): Not Active
- IC50 (B2 bradykinin receptor): Not Active

SMILES: CC1(C)S[C@@H]2[C@H](NC(=O)[C@H](N)c3ccc(O)cc3)C(=O)N2[C@H]1C(=O)O [AMOXICILLIN]
- IC50 ([1]; bti-tn-5b1-4): Not Active
- IC50 (D(4) dopamine receptor): Not Active
- IC50 [2]: Not Active
- Ki [2]: Not Active
- IC50 [3]: Not Active
- IC50 (Insulin receptor): Not Active
- IC50 (B2 bradykinin receptor): Not Active

SMILES: CCOC(=O)OC(C)OC1=C(C(=O)Nc2ccccn2)N(C)S(=O)(=O)c2ccccc21 (centres undefined) [AMPIROXICAM]
- IC50 ([1]; bti-tn-5b1-4): Not Active
- IC50 (D(4) dopamine receptor): Not Active
- IC50 [2]: Not Active
- Ki [2]: Not Active
- IC50 [3]: Not Active
- IC50 (Insulin receptor): Not Active
- IC50 (B2 bradykinin receptor): Not Active

SMILES: N#C[C@H](O[C@@H]1O[C@H](CO[C@@H]2O[C@H](CO)[C@@H](O)[C@H](O)[C@H]2O)[C@@H](O)[C@H](O)[C@H]1O)c1ccccc1 [AMYGDALIN]
- IC50 ([1]; bti-tn-5b1-4): Not Active
- IC50 (D(4) dopamine receptor): Not Active
- IC50 [2]: Not Active
- Ki [2]: Not Active
- IC50 [3]: Not Active
- IC50 (Insulin receptor): Not Active
- IC50 (B2 bradykinin receptor): Not Active

SMILES: N=C(N)NCCCCNC(=N)N.O=S(=O)(O)O [ARCAINE SULFATE]
- IC50 ([1]; bti-tn-5b1-4): Not Active
- IC50 (D(4) dopamine receptor): Not Active
- IC50 [2]: Not Active
- Ki [2]: Not Active
- IC50 [3]: Not Active
- IC50 (Insulin receptor): Not Active
- IC50 (B2 bradykinin receptor): Not Active

SMILES: C=C1[C@@H]2CCC3[C@@](CC[C@@H]4[C@H](C(=O)O)C[C@@H](O[C@@H]5O[C@H](CO)[C@@H](OS(=O)(=O)[O-])[C@H](OS(=O)(=O)[O-])[C@H]5OC(=O)CC(C)C)C[C@@]34C)(C2)[C@@H]1O.[K+].[K+] (some centres undefined) [ATRACTYLOSIDE]
- IC50 ([1]; bti-tn-5b1-4): Not Active
- IC50 (D(4) dopamine receptor): Not Active
- IC50 [2]: Not Active
- Ki [2]: Not Active
- IC50 [3]: Not Active
- IC50 (Insulin receptor): Not Active
- IC50 (B2 bradykinin receptor): Not Active

Source: ChEMBL document CHEMBL1909046, “DrugMatrix in vitro pharmacology data”
